Measurements published in US9474765B2, “Composition for lipolysis, containing phosphatidylcholine, and preparation method therefor” (AMI Pharm Co., Ltd., priority 2013, dated 2016).

Experiments:
[1] = system: Sprague-Dawley rats; assay: Measuring the thickness of the soles of the hind feet after injection (edema, erythema); format: in vivo
Description: 0.1 ml of the injectable compositions of the above Table 1, Lipobean (purchased from Ami Pharm Co., Ltd.; positive control) or 2.5% sodium deoxycholate (hereinafter, “DC”; saline solution was used as a solvent) were injected into the soles of the hind feet of 6 week-old, male Sprague-Dawley rats (weight: 170-200 g), respectively. The thickness of the soles was measured by using calipers at 1, 2, 3, and 4 hours after injection, while test performers were not aware of the order or the purpose of tests (i.e. blind study).

[2] = system: Sprague-Dawley rats; assay: Histological test of the soles (hematoxylin eosin); format: in vivo; conditions: 4 hours after administration, FIG. 3
Description: Four (4) hours after the above described administration, rats were sacrificed of which soles were removed and their skins were incised and fixated in 10% formalin solution. Then, they were dyed in hematoxylin eosin solution to observe their morphological changes.

[3] = system: Myeloperoxidase (MPO) activity; assay: MPO Activity Colorimetric Assay on hind feet tissue samples; format: in vivo, mice; conditions: FIG. 4; comparison of groups
Description: Myeloperoxidase (MPO) activity was measured by using MPO Activity Colorimetric Assay Kit (BioVision, USA). The tissue samples of the hind feet of test animals in phosphatidylcholine (PC)-containing injection-administered test groups and sodium deoxycholate (DC)-administered group in various concentrations (PC 2.5%, PC 5%, DC 2.5%, PC 5%+DC 2.5%) were mixed in 4 times MPO assay buffer and centrifuged at 12,000 rpm for 10 minutes, followed by diluting each tissue sample with 25 μl of MPO assay buffer, respectively. The diluted samples were placed into standard, background sample of 96-well plate, while dividing reaction mix and background into their corresponding wells and cultivating at 25° C. for 120 minutes. Then, stop mix was added and left for 10 minutes. Subsequently, TNB reagent was added to equalize the total amount of each well to 150 μl, followed by sun blocking with aluminum foils and 10 minutes later measuring absorption value at 412 nm.

[4] = system: Prostaglandin E2 (PGE2); assay: PGE2 Assay on hind feet tissue samples; format: in vivo, mice; conditions: FIG. 7
Description: Prostaglandin E2 (PGE2) in the hind feet tissue samples of test animals in phosphatidylcholine (PC)-containing injection-administered test groups and sodium deoxycholate (DC)-administered group in various concentrations (PC 2.5%, PC 5%, DC 2.5%, PC 5%+DC 2.5%) was measured with PGE2 Assay (R&D System Inc., Minneapolis, USA). During cultivation, PGE2s in the hind feet tissue samples bound competitively with horse radish peroxidase (HRP)-labeled PGE2 to their mouse monoclonal antibodies. Unbound materials were removed by using washing buffer, while substrate solution was added to each well and left at room temperature with sunlight blocked. Then, stop solution was added, followed by measuring absorption value at 450 nm.

[5] = system: Albino C57BL/6 mice; assay: Determination of tissue necrosis through visual inspection after subcutaneous abdominal injection; format: in vivo; conditions: 8 days after administration; for Tissue necrosis at the injected area (visual inspection): 0.2 ml s.c. into abdomen of obese mice, FIG. 8
Description: (§1) Albino C57BL/6 mice (4 weeks old) were fed with high fat diet (Research diet, 60% kcal lipid) to induce a high degree of obesity. Then, after 24 and 48 hours, 0.2 ml of saline solution (negative control group), injection compositions of Table 1, Lipobean, 2.5% DC were injected subcutaneously into the abdomen of the mice, respectively. Eight (8) days after the administration was completed, the mice were sacrificed.
Visual inspection was conducted on the subcutaneously injected areas of the sacrificed mice.

[6] = system: adipocytes; assay: Observation of adipocytes in abdominal subcutaneous fats (H&E, optical microscope); format: in vivo, Albino C57BL/6 mice; conditions: 0.2 ml s.c. into abdomen of obese mice, FIG. 9
Description: as §1
The abdomen of the sacrificed mice was incised, followed by rapid extraction of subcutaneous fats and their fixation in 4% formaldehyde solution. After fixation, washing & dehydrating were conducted and treated with paraffin solution to prepare paraffin blocks. Then, those paraffin blocks were thin-sliced in the thickness of 4 μm which were then dyed with hematoxylin & eosin for an optical microscopic observation.
The size of adipocytes in the saline control group and the PC injection-administered group were measured.

**Q.** With sodium deoxycholate [DC 2.5%] as the substance, how does the “Measurement of the thickness of the feet” value ([1]; 0 h, 0.1 ml injected into soles of hind feet, calipers) read?
**A.** 0.324

**Q.** What about the “Measurement of the thickness of the feet” value ([1]; 1 h after injection, 0.1 ml into soles of hind feet) of the same substance?
**A.** 0.720

**Q.** What about the “Measurement of the thickness of the feet” value ([1]; 2 h after injection, 0.1 ml into soles of hind feet) of the same substance?
**A.** 0.706

**Q.** And the “Measurement of the thickness of the feet” value ([1]; 3 h after injection, 0.1 ml into soles of hind feet)?
**A.** 0.682

**Q.** And the “Measurement of the thickness of the feet” value ([1]; 4 h after injection, 0.1 ml into soles of hind feet)?
**A.** 0.625

**Q.** What about the “Edema and neutrophils in sole tissue (histology)” value [2] of the same substance?
**A.** both edema and neutrophils

**Q.** What about the “MPO activity in hind feet tissue” value [3] of the same substance?
**A.** overall higher MPO activity

**Q.** What about the “Level of PGE2 relative to phosphatidylcholine (PC)-administered test groups” value [4] of the same substance?
**A.** ≥ 2 times

**Q.** What about the “Tissue necrosis at the injected area (visual inspection)” value ([5]; listed as 2.5% DC) of the same substance?
**A.** severe necrosis with perforation in the skin

**Q.** And the “Tissue necrosis at the injected area (visual inspection)” value ([5]; listed as DC)?
**A.** severe tissue necrosis with perforation and fibrosis

**Q.** And the “Fibrosis (autopsy)” value ([5]; 0.2 ml s.c. into abdomen)?
**A.** fibrosis was spread to the surrounding tissues

**Q.** And the “Inflammation in abdominal subcutaneous fat (histology)” value [6]?
**A.** greater degree of inflammation than other groups

**Q.** And the “Lipolysis in abdominal subcutaneous fat (histology)” value [6]?
**A.** Almost no lipolysis effect
